Assay results from patent publication US7396837B2, “Antitumoral analogs of lamellarins” (Pharma Mar, S.A.U., priority 2002, dated 2008).

How the values were obtained:
P388 = P388 cell line in culture; cited from earlier work
A549 = A549 cell line in culture; cited from earlier work
fertilised sea urchin = fertilised sea urchin assay; cited from earlier work
human topoisomerase I [1] = target: T1, human topoisomerase I (Homo sapiens, UniProt P11387); assay: Topoisomerase I cleavage of radiolabeled 117-bp DNA fragment; assay type: biochemical; conditions: 117-bp DNA restriction fragment 3' end-labeled, sequencing-type polyacrylamide gels
T1 sequence (P11387 1-765): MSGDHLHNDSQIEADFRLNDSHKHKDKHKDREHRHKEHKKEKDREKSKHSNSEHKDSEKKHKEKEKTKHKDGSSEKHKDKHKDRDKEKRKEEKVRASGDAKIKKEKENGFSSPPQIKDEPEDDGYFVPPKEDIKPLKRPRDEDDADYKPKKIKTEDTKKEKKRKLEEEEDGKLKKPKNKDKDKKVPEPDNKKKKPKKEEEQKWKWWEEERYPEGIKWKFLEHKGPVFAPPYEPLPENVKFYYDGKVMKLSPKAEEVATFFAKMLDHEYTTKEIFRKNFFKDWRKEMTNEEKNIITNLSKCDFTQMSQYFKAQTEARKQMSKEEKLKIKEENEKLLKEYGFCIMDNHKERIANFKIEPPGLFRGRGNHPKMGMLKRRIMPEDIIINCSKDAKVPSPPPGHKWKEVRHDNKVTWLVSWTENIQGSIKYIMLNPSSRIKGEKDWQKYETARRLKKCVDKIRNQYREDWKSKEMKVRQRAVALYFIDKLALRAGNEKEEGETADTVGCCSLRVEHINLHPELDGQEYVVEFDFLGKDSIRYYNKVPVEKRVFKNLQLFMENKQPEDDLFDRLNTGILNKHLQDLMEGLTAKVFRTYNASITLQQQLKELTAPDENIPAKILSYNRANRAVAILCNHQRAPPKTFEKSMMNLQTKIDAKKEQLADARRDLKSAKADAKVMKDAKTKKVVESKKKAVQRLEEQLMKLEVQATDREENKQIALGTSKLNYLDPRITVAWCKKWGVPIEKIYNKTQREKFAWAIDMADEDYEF
From the text: (§1) Two assays, based on DNA relaxation and DNA cleavage (Bailly, C. DNA relaxation and cleavage assays to study topoisomerase I inhibitors. Methods Enzymol. 2001, 340, 610-623) were used evaluate the effects of the lamellarin analogs on the catalytic activity of human topoisomerase I.
A second assay, based on the cleavage of a radiolabeled DNA substrate by topoisomerase I, was used to confirm that the cationic lamellarin derivatives do effectively function as topoisomerase I poisons. A 117-bp DNA restriction fragment uniquely end-labeled at the 3′ end was subjected to cleavage by topoisomerase I in the presence of the different compounds and the resulting DNA cleavage products were resolved on sequencing-type polyacrylamide gels. The advantage of this assay is to detect the cleavage sites and to locate their positions with nucleotide resolution, providing thus information on the site selectivity of cleavage.

human topoisomerase I [2] = target: T1, human topoisomerase I; assay: Topoisomerase I DNA relaxation assay (supercoiled plasmid DNA); assay type: biochemical; conditions: for stimulation of DNA cleavage by topoisomerase I / inhibition of topoisomerase I (nicked DNA band) in DNA relaxation assay: supercoiled plasmid DNA, each compound tested at 1 μM, agarose gel with ethidium bromide
Procedure: as §1
In the first assay, a supercoiled plasmid DNA was relaxed with topoisomerase I in the absence or presence of the test compounds, each tested at 1 μM. DNA relaxation products were then resolved by gel electrophoresis on agarose gels containing ethidium bromide to stain the DNA.

lung cancer cell lines = conditions: acting as a Type IV microtubule poison; cited from earlier work

COc1cc2c(cc1O)oc(=O)c1c2c(-c2ccc(OC)c(OC)c2)c2n1CCc1c-2cc(OC)c(OC)c1OC [Lamellarin I, lamellarin I]
cytotoxicity (P388): comparable cytoxicity
cytotoxicity (A549): comparable cytoxicity

COc1cc(-c2c3n(c4c(=O)oc5cc(O)c(OC)cc5c24)CCc2c-3cc(OC)c(OC)c2OC)ccc1O [Lamellarin C, lamellarin C]
inhibition of cell division (fertilised sea urchin): inhibition of cell division

COc1cc(-c2c3c4cc(OC)c(OC(=O)[C@@H](N)Cc5ccccc5)cc4oc(=O)c3n3ccc4cc(OC(=O)[C@@H](N)Cc5ccccc5)c(OC)cc4c23)ccc1OC(=O)[C@@H](N)Cc1ccccc1 [Compound 25]
topoisomerase I-mediated DNA cleavage sites / cleavage profile (human topoisomerase I [1]): Cleavage profiles identical to that of 3
potency at inhibiting topoisomerase I relative to the other amino acid derivatives (human topoisomerase I [2]; DNA relaxation assay): significantly less potent than the other amino acid derivatives
stimulation of DNA cleavage by topoisomerase I / inhibition of topoisomerase I (nicked DNA band) in DNA relaxation assay (human topoisomerase I [2]): marked inhibition of topoisomerase I

COc1ccc(-c2c3n(c4c(=O)oc5cc(O)c(OC)cc5c24)CCc2cc(O)c(OC)cc2-3)cc1O [Lamellarin L, lamellarin L]
cytotoxicity (P388): comparable cytoxicity
cytotoxicity (A549): comparable cytoxicity

CC[C@@]1(O)C(=O)OCc2c1cc1n(c2=O)Cc2cc3ccccc3nc2-1 [camptothecin, reference compound]
topoisomerase I-mediated DNA cleavage sites / cleavage profile (human topoisomerase I [1]): T^↓G only
topoisomerase I-mediated DNA cleavage sites / cleavage profile (human topoisomerase I [1]; listed as CPT): three sites at nucleotide positions 26, 48 and 81
stimulation of DNA cleavage by topoisomerase I / inhibition of topoisomerase I (nicked DNA band) in DNA relaxation assay (human topoisomerase I [2]): strongly promotes DNA cleavage by topoisomerase I

COc1ccc(-c2c3c4cc(OC)c(O)cc4oc(=O)c3n3ccc4cc(O)c(OC)cc4c23)cc1O [Lamellarin N, lamellarin N]
activity in lung cancer cell lines (lung cancer cell lines): exhibit activity in lung cancer cell lines

COc1cc(-c2c3n(c4c(=O)oc5cc(O)c(OC)cc5c24)CCc2c-3cc(OC)c(OC)c2O)ccc1O [Lamellarin K, lamellarin K]
cytotoxicity (P388): comparable cytoxicity
cytotoxicity (A549): comparable cytoxicity
